Values quoted from earlier work, collected in patent US5071850A, “2,3-dihydro-3-arylalkylaminoalkyl-4H-1,3-benzoxazin-4-one derivatives, their preparation and their application as medicinal products which are useful in therapy” (Pierre Fabre Medicament, priority 1988, dated 1991).

Settings: Finkelstein and Chiang, J. Med. Chem. 11, 1038 (1968); cited from earlier work

## CCN(CC)CCN1COc2ccccc2C1=O [3-(2-diethylaminoethyl)-2,3-dihydro-4H-1,3-benzoxazin-4-one]
  pharmacological result: inactive
